PubChem BioAssay AID248 (DTP/NCI, 2004)
Values joined by “and” are separate entries in the source; they are usually repeats but may differ in a detail not shown here. Equal entries are not always repeated. Toxic doses and inconclusive results are not listed. Cut-off read from the data, not from the text of the source: active = T/C of 150% or more; inactive = T/C below 125%.

Test system: L1210 leukemia ip in BDF1 mice, survival T/C
Assay: NCI In Vivo Anticancer Drug Screen. Data for tumor model L1210 Leukemia (intraperitoneal) in B6D2F1 (BDF1) mice
Details: endpoint: mean survival time, higher = longer survival
Summary of the method: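 In this screen, tumor-bearing mice given compound are compared to those given vehicle, and their survival values are reported as a treated-to-control quotient.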

[1] = dose: 50.0 mg/kg/injection, schedule: Q04DX002 (ip), vehicle: saline with Tween-80
[2] = dose: 100.0 mg/kg/injection, schedule: Q04DX002 (ip), vehicle: saline with Tween-80
[3] = dose: 100.0 mg/kg/injection, schedule: Q01DX001 (ip), vehicle: saline
[4] = dose: 200.0 mg/kg/injection, schedule: Q01DX001 (ip), vehicle: saline
[5] = dose: 100.0 mg/kg/injection, schedule: Q01DX009 (ip), vehicle: saline with Tween-80
[6] = dose: 200.0 mg/kg/injection, schedule: Q01DX009 (ip), vehicle: saline with Tween-80
[7] = dose: 100.0 mg/kg/injection, schedule: Q04DX003 (ip), vehicle: Klucel (hydroxypropylcellulose) (HPC)
[8] = dose: 200.0 mg/kg/injection, schedule: Q04DX003 (ip), vehicle: Klucel (hydroxypropylcellulose) (HPC)
[9] = dose: 100.0 mg/kg/injection, schedule: Q01DX009 (ip), vehicle: Klucel (hydroxypropylcellulose) (HPC)
[10] = dose: 200.0 mg/kg/injection, schedule: Q01DX009 (ip), vehicle: Klucel (hydroxypropylcellulose) (HPC)
[11] = dose: 400.0 mg/kg/injection, schedule: Q01DX009 (ip), vehicle: Klucel (hydroxypropylcellulose) (HPC)
[12] = dose: 100.0 mg/kg/injection, schedule: Q04DX003 (ip), vehicle: saline with Tween-80
[13] = dose: 200.0 mg/kg/injection, schedule: Q04DX003 (ip), vehicle: saline with Tween-80
[14] = dose: 400.0 mg/kg/injection, schedule: Q04DX003 (ip), vehicle: saline with Tween-80
[15] = dose: 400.0 mg/kg/injection, schedule: Q01DX001 (ip), vehicle: saline
[16] = dose: 100.0 mg/kg/injection, schedule: Q04DX003 (ip), vehicle: saline
[17] = dose: 25.0 mg/kg/injection, schedule: Q04DX003 (ip), vehicle: saline with Tween-80
[18] = dose: 50.0 mg/kg/injection, schedule: Q04DX003 (ip), vehicle: saline with Tween-80

Measured: T/C

Cc1csc2ncnc(Cl)c12
inactive: dose: 25.0 mg/kg/injection, schedule: Q04DX002 (ip), vehicle: saline with Tween-80 98 % of control | [1] 91 % of control | [2] 94 % of control

COC1CCN(CCCn2c3ccccc3c3ccc(C(C)=O)cc32)CC1
inactive: [3] 97 % of control | [4] 105 % of control

CCCCC(=O)Nc1cccc(O)c1
inactive: [5] 90 % of control | [6] 93 % of control | dose: 400.0 mg/kg/injection, schedule: Q01DX009 (ip), vehicle: saline with Tween-80 107 % of control

Cc1ncc(-c2ccc([N+](=O)[O-])cc2)o1
inactive: dose: 50.0 mg/kg/injection, schedule: Q04DX003 (ip), vehicle: Klucel (hydroxypropylcellulose) (HPC) 94 % of control | [7] 102 % of control | [8] 94 % of control

Cc1ccn(C(N)=O)n1
inactive: [9] 107 % of control | [7] 98 % of control | [10] 102 % of control | [8] 96 % of control | [11] 115 % of control | dose: 400.0 mg/kg/injection, schedule: Q04DX003 (ip), vehicle: Klucel (hydroxypropylcellulose) (HPC) 100 % of control

O=C(CC(C(=O)O)N1CCOCC1)c1ccccc1 (stereo not given)
inactive: dose: 50.0 mg/kg/injection, schedule: Q01DX009 (ip), vehicle: saline sonified 99 % of control | dose: 100.0 mg/kg/injection, schedule: Q01DX009 (ip), vehicle: saline sonified 97 % of control | [7] 97 % of control | dose: 200.0 mg/kg/injection, schedule: Q01DX009 (ip), vehicle: saline sonified 97 % of control | [8] 92 % of control

CCCOc1ccc(C)cc1
inactive: [3] 93 % of control | [4] 108 % of control

Cc1cc(C)c(C)c(OC(=O)Nc2cc(Cl)ccc2C)c1
inactive: [9] 94 % of control | [10] 94 % of control | [11] 95 % of control

O=C(O)C1c2ccccc2-c2c(-c3ccccc3)cccc21 (stereo not given)
inactive: [12] 87 % of control | [13] 91 % of control | [14] 103 % of control

COC1(c2ccc([N+](=O)[O-])o2)OC1(C)C (stereo not given)
inactive: [5] 98 % of control | [12] 113 % of control | [6] 95 % of control | [13] 109 % of control | [14] 96 % of control

CC(=O)CC(=O)NCCCc1ccccc1
inactive: dose: 100.0 mg/kg/injection, schedule: Q01DX009 (sc), vehicle: olive oil, sesame oil, peanut oil 101 % of control | [12] 97 % of control | dose: 200.0 mg/kg/injection, schedule: Q01DX009 (sc), vehicle: olive oil, sesame oil, peanut oil 103 % of control | [13] 103 % of control | dose: 400.0 mg/kg/injection, schedule: Q01DX009 (sc), vehicle: olive oil, sesame oil, peanut oil 106 % of control | [14] 97 % of control

O=C1OCN(c2ccccc2)/C1=C/c1ccccc1
inactive: [3] 89 % of control | [4] 94 % of control | [15] 93 % of control

N#Cc1c(NN)n(C2OC(CO)C(O)C2O)c2ncnc(N)c12 (stereo not given)
inactive: dose: 25.0 mg/kg/injection, schedule: Q01DX005 (ip), vehicle: saline 107 % of control | dose: 50.0 mg/kg/injection, schedule: Q01DX005 (ip), vehicle: saline 90 % of control | dose: 100.0 mg/kg/injection, schedule: Q01DX005 (ip), vehicle: saline 105 % of control | dose: 200.0 mg/kg/injection, schedule: Q01DX005 (ip), vehicle: saline 96 % of control

NC(N)=Nc1ccc([N+](=O)[O-])cc1
inactive: dose: 12.5 mg/kg/injection, schedule: Q04DX002 (ip), vehicle: Klucel (hydroxypropylcellulose) (HPC) 103 % of control | dose: 25.0 mg/kg/injection, schedule: Q04DX002 (ip), vehicle: Klucel (hydroxypropylcellulose) (HPC) 98 % of control | dose: 50.0 mg/kg/injection, schedule: Q04DX002 (ip), vehicle: Klucel (hydroxypropylcellulose) (HPC) 103 % of control

CC(=O)c1ccc2ccccc2c1O
inactive: dose: 100.0 mg/kg/injection, schedule: Q01DX009 (ip), vehicle: other 97 % of control | [16] 101 % of control | dose: 200.0 mg/kg/injection, schedule: Q01DX009 (ip), vehicle: other 103 % of control | dose: 200.0 mg/kg/injection, schedule: Q04DX003 (ip), vehicle: saline 90 % of control | dose: 400.0 mg/kg/injection, schedule: Q01DX009 (ip), vehicle: other 106 % of control | dose: 400.0 mg/kg/injection, schedule: Q04DX003 (ip), vehicle: saline 88 % of control

CCOP(=O)(O)Cc1c(Cl)c(Cl)c(CP(=O)(O)OCC)c(Cl)c1Cl
inactive: [3] 110 % of control | [4] 104 % of control | [15] 107 % of control

O=[N+]([O-])c1ccc[nH]1
inactive: [16] 98 % of control

CCCCCCCC(=O)N1CCCC1C(=O)NCCCCC(=O)O (stereo not given)
inactive: dose: 25.0 mg/kg/injection, schedule: Q01DX001 (ip), vehicle: saline 95 % of control | dose: 50.0 mg/kg/injection, schedule: Q01DX001 (ip), vehicle: saline 98 % of control | [3] 95 % of control

CCOC(=O)C(N)Cc1ccc(OC)c(N(CCCl)CCCl)c1 (stereo not given)
inactive: dose: 0.21 mg/kg/injection, schedule: Q01DX009 (ip), vehicle: carboxymethylcellulose (CMC) 112 % of control | dose: 0.32 mg/kg/injection, schedule: Q01DX009 (ip), vehicle: carboxymethylcellulose (CMC) 112 % of control | dose: 0.48 mg/kg/injection, schedule: Q01DX009 (ip), vehicle: carboxymethylcellulose (CMC) 122 % of control | dose: 0.75 mg/kg/injection, schedule: Q01DX009 (ip), vehicle: carboxymethylcellulose (CMC) 112 % of control | dose: 1.5 mg/kg/injection, schedule: Q01DX001 (ip), vehicle: carboxymethylcellulose (CMC) 115 % of control | dose: 2.6 mg/kg/injection, schedule: Q01DX001 (ip), vehicle: carboxymethylcellulose (CMC) 119 % of control | dose: 3.0 mg/kg/injection, schedule: Q01DX001 (ip), vehicle: carboxymethylcellulose (CMC) 117 % of control | dose: 3.0 mg/kg/injection, schedule: Q01DX009 (ip), vehicle: carboxymethylcellulose (CMC) 121 % of control | dose: 4.0 mg/kg/injection, schedule: Q01DX009 (ip), vehicle: carboxymethylcellulose (CMC) 120 % of control
active: dose: 1.1 mg/kg/injection, schedule: Q01DX009 (ip), vehicle: carboxymethylcellulose (CMC) 154 % of control | dose: 1.5 mg/kg/injection, schedule: Q01DX009 (ip), vehicle: carboxymethylcellulose (CMC) 155 % of control | dose: 1.7 mg/kg/injection, schedule: Q01DX009 (ip), vehicle: carboxymethylcellulose (CMC) 160 % of control | dose: 2.6 mg/kg/injection, schedule: Q01DX009 (ip), vehicle: carboxymethylcellulose (CMC) 160 % of control | dose: 9.0 mg/kg/injection, schedule: Q01DX001 (ip), vehicle: carboxymethylcellulose (CMC) 164 % of control

COC(=O)c1cc(NC(=O)Nc2ccc(F)c([N+](=O)[O-])c2)cc(C(=O)OC)c1
inactive: [9] 95 % of control | [10] 93 % of control | [11] 96 % of control

COc1ccc(C(C)=O)cc1CCCO
inactive: [3] 95 % of control | [4] 91 % of control | [15] 97 % of control

O=c1ccccn1CCc1ccccc1
inactive: dose: 12.5 mg/kg/injection, schedule: Q04DX003 (ip), vehicle: saline with Tween-80 95 % of control | [17] 101 % of control | [18] 97 % of control

N#CCC(N)=C(C#N)C#N
inactive: dose: 100.0 mg/kg/injection, schedule: Q01DX001 (ip), vehicle: carboxymethylcellulose (CMC) 94 % of control | dose: 100.0 mg/kg/injection, schedule: Q01DX Z (ip), vehicle: carboxymethylcellulose (CMC) 94 % of control | dose: 200.0 mg/kg/injection, schedule: Q01DX001 (ip), vehicle: carboxymethylcellulose (CMC) 103 % of control

Cc1ccccc1C(=O)C(C#N)c1ccccc1 (stereo not given)
inactive: dose: 25.0 mg/kg/injection, schedule: Q01DX009 (ip), vehicle: saline with Tween-80 103 % of control and 92 % of control | [17] 98 % of control | dose: 50.0 mg/kg/injection, schedule: Q01DX001 (ip), vehicle: saline with Tween-80 95 % of control | dose: 50.0 mg/kg/injection, schedule: Q01DX009 (ip), vehicle: saline with Tween-80 96 % of control and 103 % of control | [1] 97 % of control | [18] 102 % of control | dose: 100.0 mg/kg/injection, schedule: Q01DX001 (ip), vehicle: saline with Tween-80 90 % of control | [5] 113 % of control and 118 % of control | [2] 93 % of control and 111 % of control and 88 % of control | dose: 200.0 mg/kg/injection, schedule: Q04DX002 (ip), vehicle: saline with Tween-80 90 % of control
